Measurements reported in the METLIN SMRT retention time set (Domingo-Almenara et al. 2019).

Experiment: gradient 5% acetonitrile 3 min, to 50% in 2 min, to 85% in 15 min, held 3 min, 100 µL/min
Conditions: column: Zorbax Extend-C18 2.1 x 50 mm; eluents: water / acetonitrile, 0.1% formic acid
Method in brief: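 Over 3 months, pure standards in mixtures of ~100 molecules were run by HPLC coupled to a quadrupole time-of-flight mass spectrometer in positive and negative ionization mode. The column was a Zorbax Extend-C18 (2.1 × 50 mm, 1.8 μm) at 100 μL/min, eluted with water and acetonitrile each holding 0.1% formic acid, with 40 μL dead and 900 μL dwell volumes. Retention time was determined from adduct peaks chosen by software and checked manually.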

Row | Compound | RP-LC retention time
1 | CCn1cc(-c2nc(C)c(C(=O)N3CCCCCC3)s2)c2cccnc21 | 942 s
2 | CCCn1cc(C(=O)NCc2cccs2)c2cccnc21 | 799 s
3 | COc1ccc(Cl)cc1NC(=O)C1CC(=O)N(c2ccc3c(c2)CCN3C(C)=O)C1 (stereo not given) | 774 s
4 | CC(C)CCNC(=O)NCCc1cn(C)c2ncccc12 | 649 s
5 | O=C(Nc1ccc2c(c1)OCCO2)[C@@H]1COCC(=O)N1Cc1ccc(F)cc1 | 765 s
6 | CCSc1nnc(-c2nn(C)c3c2CN(C(=O)c2ccccc2C)CC3)n1C | 734 s
7 | COC(=O)c1ccc2c(C(C)=O)c[nH]c2c1 | 642 s
8 | COc1cc([C@@H]2c3cc4c(c(O)c3C[C@H]3COC(=O)[C@@H]32)OCO4)cc(OC)c1OC | 620 s
9 | Cc1ccc(F)cc1S(=O)(=O)N1CCCC(C)(C(=O)NCc2cccc(F)c2)C1 (stereo not given) | 1020 s
10 | O=C(NCCC1CCN(C(=O)Nc2cc(F)cc(F)c2)CC1)C1CC1 | 735 s
11 | Cc1nnc2cc(N3CCN(S(=O)(=O)c4ccc(Br)cc4)CC3)cnn12 | 740 s
12 | CCOc1ccc(C(=O)NC2CCN(c3cc(-c4cccs4)[nH]n3)C2)cc1OCC (stereo not given) | 755 s
13 | CCOC(=O)C1CCN(CC(O)COc2cc(C)cc(C)c2C)CC1 (stereo not given) | 597 s
14 | Cn1nc(CN2CCCC2)c2c1CCN(S(=O)(=O)c1ccc(F)cc1F)C2 | 622 s
15 | CCn1c(C)nnc1SCc1nc(-c2ccc(OC)c(OC)c2)oc1C | 651 s
16 | O=C(NC1CC1)C1CCCN(c2ncnc3c2nc2n3CCCCC2)C1 (stereo not given) | 622 s
17 | Cc1[nH]c2ccccc2c1C(=O)C(=O)Nc1ccc2c(c1)OCO2 | 782 s
18 | O=C(CCC(=O)N1CCOc2ccc(Cl)cc21)N1CCN(c2ccccn2)CC1 | 656 s
19 | Cc1cc(F)ccc1NC(=O)C1CCN(S(=O)(=O)c2ccc3c(c2)sc(=O)n3C)CC1 | 844 s
20 | O=C(NCc1ccc(F)cc1)[C@@H]1COCC(=O)N1Cc1ccc(F)cc1 | 791 s
21 | CCC(C)NC(=O)C(=O)NCc1n[nH]c(=O)c2ccccc12 (stereo not given) | 649 s
22 | CCc1ccc(-c2ccc(-n3nc(C)c(S(=O)(=O)N4CCC(C)CC4)c3C)nn2)cc1 | 1350 s
23 | Cc1cccc(CN2CC(N(C3CCOCC3)S(C)(=O)=O)C2)c1 | 621 s
24 | CCCn1c(=O)c(N2CCC(NC(=O)Nc3ccc4c(c3)OCCO4)CC2)nc2ccccc21 | 933 s
25 | COc1ccc(-c2nc(C3CC(=O)N(c4ccc(Cl)cc4)C3)no2)c(OC)c1 (stereo not given) | 996 s
26 | Cc1cccc(OCC(=O)N2CCCC(c3n[nH]c(C4CC4)n3)C2)c1 (stereo not given) | 687 s
27 | COc1ccc(N2CCN(C(=O)c3ccc4c(c3)NC(=O)C3CCCCN43)CC2)cc1 (stereo not given) | 756 s
28 | COc1ccc(N2CC(c3nc(-c4cccc(Cl)c4)no3)CC2=O)cc1 (stereo not given) | 973 s

Row | Compound | RP-LC retention time
29 | c1cn(-c2cc(N3CCCC3)ncn2)cn1 | 556 s
30 | Cc1ccc(NC(=O)C2CC(=O)N(c3ccc4oc(C)nc4c3)C2)c(C)c1 (stereo not given) | 741 s
31 | O=C(c1ccc(F)cc1F)N1CCN(c2cc(-c3ccc(Cl)cc3)[nH]n2)CC1 | 894 s
32 | CCC(=O)N1CCC(N2CC(OCC3CC3)C23CCOCC3)CC1 (stereo not given) | 577 s
33 | Cn1cnc2c(C(=O)NC3CCCCC3)nn(-c3cccc(Cl)c3)c2c1=O | 975 s
34 | Cc1cc(C)cc(NC(=O)CN2C(=O)COc3ccc(C(=O)N4CCCC4)cc32)c1 | 773 s
35 | COCc1nn(C)c2c1CN(S(=O)(=O)c1cccc(C#N)c1)CC2 | 676 s
36 | Cc1ccc(CC(=O)N2CCC3(CC2)NC(=O)c2cc(F)ccc2N3C)cc1 | 804 s
37 | CCc1noc([C@@H]2CC(F)(F)CN2C(=O)c2ocnc2C)n1 | 720 s
38 | NC(=O)C1CCN(C(=O)CN2c3ccc(Br)cc3-c3ccccc3S2(=O)=O)CC1 | 705 s
39 | Cc1csc(-c2cc(S(=O)(=O)N3CCN(c4ccccc4)CC3)c(C)s2)n1 | 1160 s
40 | Cc1cc2nc(C(F)(F)F)c(=O)n(C(C)C(=O)NCCCN3CCCC3)c2cc1C (stereo not given) | 714 s
41 | O=C(NC1CCCC1)c1cc2sccc2n1Cc1ccc(F)cc1 | 1080 s
42 | CCCNC(=O)C1CCCN(C(=O)c2[nH]c(C)c(C(=O)OCC)c2C)C1 (stereo not given) | 712 s
43 | CCC1Oc2ccc(S(=O)(=O)N3CCC(C(=O)Nc4cccc(F)c4)CC3)cc2NC1=O (stereo not given) | 910 s
44 | Cc1ccc(C(=O)NC2CCN(c3ccc(C)cc3)C2=O)cc1 (stereo not given) | 825 s
45 | COc1ccc(CNC(=O)c2ccc3c(c2)NC(=O)C2CCCCN32)c(OC)c1 (stereo not given) | 795 s
46 | O=C(NC1CCCCC1)C1CCCN(c2ccnc(-c3ccc(F)cc3)n2)C1 (stereo not given) | 695 s
47 | COc1nn(C)cc1C(=O)N1CCC(C(=O)NCc2cccs2)CC1 | 613 s
48 | O=C1CC(c2noc(-c3cc(F)cc(F)c3)n2)CN1c1ccc(Cl)cc1 (stereo not given) | 1100 s
49 | Cc1ccc(NS(=O)(=O)c2ccc3c(c2)C(=O)N(C)c2ncccc2O3)cc1C | 970 s
50 | CCN(CC)S(=O)(=O)c1ccc2c(c1)N(CC(=O)N1CCCCC1)C(=O)C1CCCCN21 (stereo not given) | 905 s
51 | Fc1ccccc1N1CCN(Cc2nc(-c3ccc(N4CCCCC4)nc3)no2)CC1 | 972 s
52 | Cc1oc(C2CCN(S(=O)(=O)c3ccc(C(C)C)cc3)CC2)nc1C(=O)N1CCCC1 | 1070 s
53 | COc1cccc(CC(=O)N2CCC3(CC2)NC(=O)c2ccc(Cl)cc2N3)c1 | 790 s
54 | COc1cc(F)ccc1-c1ccnc2nc(C3CCC3)nn12 | 864 s
55 | Cc1ccc2cc(CN3CCC4(CCC4O)CC3)c(=O)[nH]c2c1 (stereo not given) | 590 s

Now from value to compound:

Row | RP-LC retention time | Compound
56 | 622 s | Cc1ccc(-c2nc3cnccn3c2NCCC(=O)N(C)C)cc1
57 | 830 s | O=C(NCCc1ccc(F)cc1)C1CC(=O)N(CCc2c[nH]c3ccc(Cl)cc23)C1 (stereo not given)
58 | 1030 s | Cc1oc2ccn(Cc3ccc(F)cc3)c(=O)c2c1C(=O)NCc1cccs1
59 | 1310 s | O=C(Nc1nc(-c2ccc(Cl)cc2)cs1)c1ccc(COc2ccccc2Cl)o1
60 | 764 s | CCOc1cc(-c2ccc(C)cc2)nc2ccc(NC(=O)c3ccco3)cc12
61 | 869 s | O=C(Nc1ccc(F)cc1F)N1CCN(Cc2nc3cc(-c4ccccc4)ccc3o2)CC1
62 | 761 s | COCCN1C(=O)CCc2cc(NC(=O)CCc3ccccc3)ccc21
63 | 769 s | CCOC(=O)c1nc(NCCc2ccccc2)c2ccccc2n1
64 | 921 s | CCc1nn2c(CNS(=O)(=O)c3ccccc3C)c(-c3ccccc3)nc2s1
65 | 1010 s | O=C(Cc1csc2nc(-c3cccc(Br)c3)cn12)Nc1cccc(F)c1
66 | 641 s | Cc1noc(CNC(=O)c2cc(-c3cccs3)[nH]n2)n1
67 | 1200 s | CCc1nc(-n2cccc2)sc1C(=O)Nc1ccc(C)cc1F
68 | 1270 s | CCc1ccc(OCc2ccc(C(=O)Nc3nc(-c4ccccc4)cs3)o2)cc1
69 | 904 s | Cc1cccc2c(C(N)=O)cc(-c3ccccc3)nc12
70 | 1120 s | O=C(CCn1c(=O)sc2ccccc21)Nc1nc(-c2ccc(Br)cc2)cs1
71 | 678 s | Cc1nc2c(C(=O)NCCN3CCOCC3)cnn2c(C)c1Cc1ccccc1Cl
72 | 1230 s | COc1ccccc1CNc1ccc(-c2nc(-c3cccc(F)c3)no2)cn1
73 | 665 s | c1ccc(-c2nc3ccccn3c2Nc2ccc3c(c2)OCCO3)cc1

Row | RP-LC retention time | Compound
74 | 847 s | CCCn1nc(CNC(=O)Cc2cccs2)c2ccccc21
75 | 673 s | COc1cccc(CC(=O)NC2CCN(c3cc(-c4ccccc4)[nH]n3)C2)c1 (stereo not given)
76 | 1210 s | O=S(=O)(NCCc1ccccc1)c1ccccc1-c1nc(-c2ccccc2)no1
77 | 740 s | NC(=O)c1cc(-c2ccccc2F)nc2ccccc12
78 | 850 s | C=CC(=O)N1CCCC(n2nc(-c3ccc(Oc4ccccc4)cc3)c3c(N)ncnc32)C1 (stereo not given)
79 | 755 s | COc1cccc(-c2nc3cnccn3c2NCCC(=O)NC2CCCCCC2)c1
80 | 1340 s | COc1ccc(C2Cn3nnc(-c4nc(-c5ccc(OCc6ccccc6)cc5)no4)c3CO2)cc1 (stereo not given)
81 | 689 s | Cc1ccccc1CNC(=O)Cc1cn(C)c2ncccc12
82 | 784 s | O=C(CNS(=O)(=O)Cc1ccccc1)N1CCOC(c2ccccc2)C1 (stereo not given)
83 | 933 s | O=C(NCc1ccc(N2CCOCC2)cc1)C1CCCN(c2nccnc2Sc2ccccc2)C1 (stereo not given)
84 | 561 s | COC(=O)c1ccc(NC(=O)CN2CC(c3nc(-c4cnccn4)no3)C2)cc1
85 | 655 s | Cc1nc2c(OCc3ccccc3)cccn2c1CC#N
86 | 823 s | Cc1noc(-c2ccnc(-n3cnc(C(=O)NCCc4ccccc4)c3)c2)n1
87 | 1090 s | Cc1c(-c2noc(-c3cccc(F)c3)n2)nnn1-c1ccccc1
88 | 1000 s | CCOc1ccc(N2CC(c3nc(-c4ccccc4Cl)no3)CC2=O)cc1 (stereo not given)
89 | 824 s | CC(=O)N1CCc2cc(-c3ccc(C(=O)NCc4ccc5c(c4)OCO5)cc3)ccc21
90 | 853 s | O=C(NCc1ccco1)C1CCN(Cc2cc3ccccc3n2Cc2cccc(Cl)c2)CC1
